Assay results published in patent US20050227941A1, “Sequestration of ass in the periphery in the absence of immunomodulating agent as a therapeutic approach for the treatment or prevention of beta-amyloid related diseases” (priority 2001, published 2005).

Assays:
Format in all cases: in vivo
Aβ42 [1] = molecular target: T1, Aβ42 (Homo sapiens, UniProt P05067); assay: Plasma Aβ42 level over time after a single injection of CG in PS/APP mice (ELISA); conditions: single injection 20 mg/kg
T1 construct: from tissue; host or cells: brain (70% formic acid extract) and plasma of PS/APP transgenic mice
Excerpt: In this Example, as in Example 1, transgenic mice that develop AD-related amyloidosis, (i.e., PS/APP mice; See, L. Holcomb et al., 1998, Nature Med., 4(1):97-100) were used to assess the Aβ-binding compound chrysamine G (CG) in the peripheral sequestration of Aβ according to this invention, and to determine how the peripheral sequestration of Aβ by this compound affected brain Aβ levels. CG is known to bind Aβ strongly, and is less brain permeable than GM1.
PS/APP mice at 10 weeks of age were injected once either with CG (number of mice=3, dosage: 20 mg/kg) or vehicle (phosphate buffered saline, number of mice=2) into the blood stream. […] […] The levels of Aβ peptides (Aβ40 or Aβ42) in the plasma were assessed by ELISA immunoassay. The levels of Aβ peptides in the periphery, i.e., plasma, of CG treated mice were compared with plasma Aβ levels in pretreatment mice at various time points.
Changes in plasma load of Aβ42 after injection with CG were compared to the plasma Aβ level at pretreatment time points. As can be observed, there was a significant increase in plasma Aβ levels after injection of CG.

Aβ42 [2] = molecular target: T1, Aβ42; assay: Plasma Aβ42 level after one week of daily CG injection in PS/APP mice (ELISA); conditions: 20 mg/kg ip every day for one week from 11 weeks of age, vehicle = 100 ± 9
Experimental: (§1) Following a oneweek wash out period, the effect in brain AD level after continuous injection was examined. PS/APP mice were injected every day for one week into the periphery, with either CG (number of mice=3) (20 mg/kg, ip,) or vehicle (phosphate buffered saline) (number of mice=2), at 11 weeks of age, an age when amyloid pathology in the brain is not visible. The mice were sacrificed at 12 weeks of age, an age when amyloid deposition has been initiated and measurable levels of Aβ are present in the vehicle treated controls.
(§2) The levels of Aβ in the peripheral blood were tested at the end of the administration period. The levels of Aβ peptides (e.g., Aβ40 or Aβ42) in the brain and plasma were assessed by ELISA assay. All of the Aβ in the brain (including Aβ in plaques) was extracted in 70% formic acid (FA). The levels of Aβ peptides in CG treated mice were compared with those of vehicle treated controls. […] This correlates with a statistically significant increase in peripheral Aβ40 and Aβ42 at the same time point.

Aβ40 [3] = molecular target: T2, Aβ40 (Homo sapiens, UniProt P05067); assay: Brain Aβ40 (70% formic acid extract, ELISA) after one week of daily CG injection in PS/APP mice; conditions: 20 mg/kg ip every day for one week, sacrificed at 12 weeks, vehicle 926 ± 26
T2 construct: from tissue; host or cells: brain (70% formic acid extract) and plasma of PS/APP transgenic mice
Experimental: as §1, §2

Aβ42 [4] = molecular target: T1, Aβ42; assay: Brain Aβ42 (70% formic acid extract, ELISA) after one week of daily CG injection in PS/APP mice; conditions: 20 mg/kg ip every day for one week, sacrificed at 12 weeks, vehicle 1209 ± 292, not statistically significant
Experimental: as §1, §2

Aβ40 [5] = molecular target: T2, Aβ40; assay: Brain Abeta40 load (70% formic acid extract, ELISA) in PS/APP mice after peripheral GM1 or gelsolin; conditions: 1 week wash-out; for brain Abeta load, Abeta40: ip every two days for two weeks from 9 weeks of age, sacrificed at 12 weeks, FA-soluble brain fraction; for brain Abeta40 load compared with controls (vehicle): ip every two days for two weeks, % of vehicle
Experimental: (§3) Transgenic mice that develop AD-related amyloidosis, (i.e., PS/APP mice; See, L. Holcomb et al., 1998, Nature Med., 4(1):97-100) were used for the studies described in this Example to assess how peripheral sequestration of Aβ affected brain Aβ levels. […] In addition, a second compound, gelsolin, which is too large to cross the blood/brain barrier (BBB), and is completely unrelated to GM1, but which is also known to bind Aβ with great avidity, was administered peripherally to confirm the universality of the mechanism.
(§4) PS/APP mice were injected every two days for two weeks either with GM1 (number of mice=6) (15 mg/kg, ip,), with gelsolin (number of mice=3) (60 μg/kg, ip), or with vehicle, (phosphate buffered saline), (number=7), into the periphery at 9 weeks of age, an age when amyloid pathology in the brain is not visible. The mice were left for 1 week without injections (the “wash-out” period) and were then sacrificed at 12 weeks of age, an age when amyloid deposition has been initiated and measurable levels of Aβ are present in the vehicle treated controls.
(§5) The levels of Aβ in the peripheral blood were tested at three time points during the drug administration period (i.e., after 1 week of injections; after two weeks of injections; and after the washout period). Data for the third time point only are shown. The levels of Aβ peptides (Aβ40 or Aβ42) in the brain and plasma were assessed by ELISA assay. All of the Aβ in the brain (including Aβ in plaques) was extracted in 70% formic acid (FA). The levels of Aβ peptides in GM1 or gelsolin treated mice were compared with those of vehicle treated controls.
(§6) This correlates with a statistically significant increase in peripheral Aβ40 and Aβ42 at the same time point. For gelsolin, there was also a significant decrease in Aβ42, which correlated with a statistically significant increase in peripheral Aβ, thus confirming that the general principle of Aβ sequestration in the periphery being linked to reduction of Aβ in the CNS holds true for very different types of compounds that have the unifying property of being able to bind Aβ in the blood.

Aβ42 [6] = molecular target: T1, Aβ42; assay: Brain Abeta42 load (70% formic acid extract, ELISA) in PS/APP mice after peripheral GM1 or gelsolin; conditions: 1 week wash-out; for brain Abeta load, Abeta42: ip every two days for two weeks from 9 weeks of age, sacrificed at 12 weeks, FA-soluble brain fraction; for brain Abeta42 load compared with controls (vehicle): ip every two days for two weeks, % of vehicle
Experimental: as §3, §4, §5, §6

Aβ40 [7] = molecular target: T2, Aβ40; assay: Plasma Abeta40 load (ELISA) in PS/APP mice after peripheral GM1 or gelsolin; conditions: ip every two days for two weeks, third time point (after wash-out), vehicle = 100 ± 21
Experimental: as §3, §4
(§7) The levels of Aβ in the peripheral blood were tested at three time points during the drug administration period (i.e., after 1 week of injections; after two weeks of injections; and after the washout period). […] The levels of Aβ peptides (Aβ40 or Aβ42) in the brain and plasma were assessed by ELISA assay. […]

Aβ42 [8] = molecular target: T1, Aβ42; assay: Plasma Abeta42 load (ELISA) in PS/APP mice after peripheral GM1 or gelsolin; conditions: ip every two days for two weeks, third time point (after wash-out), vehicle = 100 ± 7
Experimental: as §3, §4, §7

Aβ = assay: GM1 introduced directly into the brain of transgenic mice, Aβ levels
Excerpt: Neither GM1 nor gelsolin is known to cross into the brain from the periphery to any degree. […] This is the first time that such a result has been shown for a peripherally administered compound that is not an antibody. As such, the invention affords a significant advantage to the art by describing and promoting Aβ-binding compounds that require neither penetration of the brain nor the evocation of an immune response, which are potentially harmful and ineffective ways to modulate the risk of AD in human patients.

T2 sequence (P05067 672-711 limits assumed): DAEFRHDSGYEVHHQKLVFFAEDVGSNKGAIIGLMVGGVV
T1 sequence (P05067 672-713 limits assumed): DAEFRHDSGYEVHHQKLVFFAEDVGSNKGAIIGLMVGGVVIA
Sequence of Aβ (P05067 672-711 limits assumed): as the sequence (P05067 672-711 limits assumed) above

O=C([O-])c1cc(N=Nc2ccc(-c3ccc(N=Nc4ccc(O)c(C(=O)[O-])c4)cc3)cc2)ccc1O.[Na+].[Na+] [CG, 5,5′-[(1,1′ biphenyl)-4,4′-diylbis(azo)]bis [2-hydroxybenzoic acid]disodium salt]
plasma Aβ42 level (Aβ42 [1]; 2.5 hours after injection): 110 ± 8 (p = 0.232) % of pre-treatment time point
plasma Aβ42 level (Aβ42 [1]; 5 hours after injection): 125 ± 8 (p = 0.049) % of pre-treatment time point
plasma Aβ42 level (Aβ42 [1]; 7.5 hours after injection): 125 ± 7 (p = 0.034) % of pre-treatment time point
plasma Aβ42 level (Aβ42 [1]; 24 hours after injection): 112 ± 13 (p = 0.341) % of pre-treatment time point
plasma Aβ42 level (Aβ42 [1]; 48 hours after injection): 111 ± 10 (p = 0.256) % of pre-treatment time point
plasma Aβ42 level (Aβ42 [2]): 331 ± 10 % of control
brain Aβ40 (Aβ40 [3]): 541 ± 50 fmol/mL
brain Aβ42 (Aβ42 [4]): 540 ± 271 fmol/mL

GM1
brain Abeta load, Abeta40 (Aβ40 [5]): 2147 ± 226 fmole/mg protein
brain Abeta40 load compared with controls (vehicle) (Aβ40 [5]): 59%
brain Abeta load, Abeta42 (Aβ42 [6]): 2990 ± 410 fmole/mg protein
brain Abeta42 load compared with controls (vehicle) (Aβ42 [6]): 73%
plasma Abeta load, Abeta40 (Aβ40 [7]): 177 ± 29 fmole/ml plasma
plasma Abeta load, Abeta42 (Aβ42 [8]): 124 ± 11 fmole/ml plasma
change in Aβ levels (Aβ): no change in Aβ levels was observed

gelsolin
brain Abeta load, Abeta40 (Aβ40 [5]): 3473 ± 673 fmole/mg protein
brain Abeta40 load compared with controls (vehicle) (Aβ40 [5]): 96%
brain Abeta load, Abeta42 (Aβ42 [6]): 2473 ± 167 fmole/mg protein
brain Abeta42 load compared with controls (vehicle) (Aβ42 [6]): 60%
plasma Abeta load, Abeta40 (Aβ40 [7]): 218 ± 87 fmole/ml plasma
plasma Abeta load, Abeta42 (Aβ42 [8]): 153 ± 35 fmole/ml plasma
